Assay [1] addresses JAK2 (recombinant purified GST-tagged catalytic domain) (Homo sapiens (Human), UniProt O60674). Description: Jak Biochemical HTRF Assay (JAK2). The conditions noted are these: [ATP] 8.5 μM.
In assay [2] the target is JAK1 (recombinant purified GST-tagged catalytic domain) (Homo sapiens (Human), UniProt P23458). Description: Jak Biochemical HTRF Assay (JAK1). The conditions noted are these: [ATP] 31.8 μM. The method in brief:
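Under a 120 min room-temperature, ATP-initiated reaction, peptide phosphorylation was detected by Eu-pY20/streptavidin-Dylight 650 HTRF after EDTA stop. IC50 values derive from percent inhibition curves.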

JAK2 (recombinant purified GST-tagged catalytic domain), sequence (O60674 849-1124): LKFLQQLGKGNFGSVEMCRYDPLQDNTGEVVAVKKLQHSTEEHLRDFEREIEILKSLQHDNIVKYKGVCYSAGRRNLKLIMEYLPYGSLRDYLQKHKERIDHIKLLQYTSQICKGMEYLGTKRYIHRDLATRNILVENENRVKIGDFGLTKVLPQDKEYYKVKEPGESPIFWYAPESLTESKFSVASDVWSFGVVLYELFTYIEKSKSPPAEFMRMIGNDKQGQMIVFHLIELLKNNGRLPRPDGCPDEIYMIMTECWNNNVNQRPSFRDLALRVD
JAK1 (recombinant purified GST-tagged catalytic domain), sequence (P23458 875-1153): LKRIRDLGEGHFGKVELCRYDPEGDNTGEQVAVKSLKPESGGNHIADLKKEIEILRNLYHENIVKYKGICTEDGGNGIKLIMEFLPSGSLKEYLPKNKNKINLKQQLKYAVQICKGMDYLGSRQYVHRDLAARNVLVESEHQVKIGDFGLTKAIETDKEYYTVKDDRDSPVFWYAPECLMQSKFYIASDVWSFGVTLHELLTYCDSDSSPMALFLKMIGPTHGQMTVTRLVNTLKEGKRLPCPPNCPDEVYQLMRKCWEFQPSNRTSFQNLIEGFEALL

For `CC(C)(C)OC(=O)N1CCC(CC#N)(n2nc(Nc3ccc(C(F)(F)F)cc3)c3c(=O)[nH]ccc32)CC1` [Example 5-8, tert-butyl 4-(cyanomethyl)-4-(4-oxo-3-{[4-(trifluoromethyl)phenyl]amino}-4,5-dihydro-1H-pyrazolo [4,3-c]pyridin-1-yl) piperidine-1-carboxylate], the IC50 in assay [1] came to 20 nM; in assay [2], 1.96 nM.
As for `CC(C)C(C)(C)S(=O)(=O)c1ccc(Nc2nn([C@]3(CC#N)CCCOC3)c3cc[nH]c(=O)c23)cc1` [Example 5-192, {(3S)-3-[4-oxo-3-({4-[(1,1,2-trimethylpropyl)sulfonyl]phenyl}amino)-4,5-dihydro-1H-pyrazolo[4,3-c]pyridin-1-yl]tetrahydro-2H-pyran-3-yl}acetonitrile], the IC50 in assay [1] is 0.3 nM; in assay [2], 0.17 nM.
For the compound `CC(C)(C)OC(=O)N1CC(CC#N)(n2nc(Nc3ccnc(F)c3)c3c(=O)[nH]ccc32)C1` [Example 5-46, tert-butyl 3-(cyanomethyl)-3-{3-[(2-fluoropyridin-4-yl)amino]-4-oxo-4,5-dihydro-1H-pyrazolo[4,3-c]pyridin-1-yl}azetidine-1-carboxylate], the half-maximal inhibitory concentration (IC50) is 43.5 nM in assay [1] and 3.53 nM in assay [2].
For the compound `CCOC(=O)C(C)(C)C(O)(c1ccc(Nc2nn([C@]3(CC#N)CCCOC3)c3cc[nH]c(=O)c23)cc1)C(F)(F)F` (single isomer, unassigned) [Example 5-113, (S or R)-ethyl 3-(4-((1-((3S)-3-(cyanomethyl)tetrahydro-2H-pyran-3-yl)-4-oxo-4,5-dihydro-1H-pyrazolo[4,3-c]pyridin-3-yl)amino)phenyl)-4,4,4-trifluoro-3-hydroxy-2,2-dimethylbutanoate], the IC50 in assay [1] is 0.34 nM; in assay [2] it was 0.28 nM.
Consider `CC(C)(C)OC(=O)N1CC(CC#N)(n2nc(Nc3ccccc3)c3c(=O)[nH]ccc32)C1` [Example 1-1, tert-butyl 3-(cyanomethyl)-3-(4-oxo-3-(phenylamino)-4,5-dihydro-1H-pyrazolo[4,3-c]pyridin-1-yl)azetidine-1-carboxylate], for which the half-maximal inhibitory concentration (IC50) in assay [1] was determined as 25 nM; in assay [2] it was 2.23 nM.
For the compound `CCNC(c1ccc(Nc2nn([C@@]3(CC#N)CCCC[C@H]3F)c3cc[nH]c(=O)c23)cc1)C(F)(F)F` (single isomer, unassigned) [Example 5-173, {(1R,2R)-1-[3-({4-[(1R or 1S)-1-(ethylamino)-2,2,2-trifluoroethyl]phenyl}amino)-4-oxo-4,5-dihydro-1H-pyrazolo [4,3-c]pyridin-1-yl]-2-fluorocyclohexyl} acetonitrile], the IC50 in assay [1] and in assay [2] was 0.07 nM throughout.
For the compound `CN(C)S(=O)(=O)c1ccc(Nc2nn(C3(CC#N)CCN(C(=O)c4ccc(Cl)cc4)CC3)c3cc[nH]c(=O)c23)cc1` [Example 9-13, 4-[(1-{1-[(4-chlorophenyl)carbonyl]-4-(cyanomethyl)piperidin-4-yl}-4-oxo-4,5-dihydro-1H-pyrazolo[4,3-c]pyridin-3-yl)amino]-N,N-dimethylbenzenesulfonamide], the values for the IC50 in assay [1] and in assay [2] were 12 nM and 1.08 nM, respectively.
For the compound `COC(=O)N1CCC(CC#N)(n2nc(Nc3ccc(F)cc3)c3c(=O)[nH]ccc32)CC1` [Example 5-146, methyl 4-(cyanomethyl)-4-(3-((4-fluorophenyl)amino)-4-oxo-4,5-dihydro-1H-pyrazolo[4,3-c]pyridin-1-yl)piperidine-1-carboxylate], the half-inhibitory concentration (IC50) came out at 2 nM in assay [1] and 0.3 nM in assay [2].
For `CC(C)(C)OC(=O)N1CCC(CC#N)(n2nc(Nc3ccc(C4(C(F)(F)F)CCNC4)cc3)c3c(=O)[nH]ccc32)CC1` (single isomer, unassigned) [Example 5-283, (S or R) tert-butyl 4-(cyanomethyl)-4-(4-oxo-3-((4-(3-(trifluoromethyl)pyrrolidin-3-yl)phenyl)amino)-4,5-dihydro-1H-pyrazolo[4,3-c]pyridin-1-yl)piperidine-1-carboxylate], in that order: 0.43 nM and 0.33 nM.
For `N#CC[C@]1(n2nc(Nc3ccc4nccc(F)c4c3)c3c(=O)[nH]ccc32)CCOC1` (single isomer, unassigned) [Example 5-246, [(3S or 3R)-3-{3-[(4-fluoroquinolin-6-yl)amino]-4-oxo-4,5-dihydro-1H-pyrazolo[4,3-c]pyridin-1-yl}tetrahydrofuran-3-yl]acetonitrile], in that order: 172 nM and 16.8 nM.
Regarding `Cc1ccc2cc(Nc3nn([C@]4(CC#N)CC[C@@H](C(=O)OC(C)(C)C)OC4)c4cc[nH]c(=O)c34)ccc2n1` [Example 5-217, (2S,5S)-tert-butyl 5-(cyanomethyl)-5-(3-((2-methylquinolin-6-yl)amino)-4-oxo-4,5-dihydro-1H-pyrazolo[4,3-c]pyridin-1-yl)tetrahydro-2H-pyran-2-carboxylate], the 50% inhibitory concentration (IC50) in assay [1] was 0.77 nM; in assay [2], 0.07 nM.
With `CN(C)S(=O)(=O)c1ccc(Nc2nn(C3(CC#N)CCN(C(=O)Oc4ccccc4)CC3)c3cc[nH]c(=O)c23)cc1` [Example 10-2, phenyl 4-(cyanomethyl)-4-(3-((4-(N,N-dimethylsulfamoyl)phenyl)amino)-4-oxo-4,5-dihydro-1H-pyrazolo[4,3-c]pyridin-1-yl)piperidine-1-carboxylate], the figures for the 50% inhibitory concentration (IC50) in assay [1] and in assay [2] were 0.86 nM and 0.19 nM, respectively.
Regarding `CC(C)(C)N1Cc2cc(Nc3nn([C@]4(CC#N)CCOC[C@@H]4F)c4cc[nH]c(=O)c34)ccc2S1(=O)=O` (single isomer, unassigned) [Example 5-256, 2-((3R,4R or 3S,4S)-4-(3-((2-(tert-butyl)-1,1-dioxido-2,3-dihydrobenzo[d]isothiazol-5-yl)amino)-4-oxo-4,5-dihydro-1H-pyrazolo[4,3-c]pyridin-1-yl)-3-fluorotetrahydro-2H-pyran-4-yl)acetonitrile], the figures for the IC50 in assay [1] and in assay [2] were 0.06 nM and 0.04 nM, respectively.
For the compound `N#CCC1(n2nc(Nc3ccc(C(F)(F)F)cc3)c3c(=O)[nH]ccc32)CCC2(CC1)OCCO2` [Example 5-83, 2-(8-(4-oxo-3-((4-(trifluoromethyl)phenyl)amino)-4,5-dihydro-1H-pyrazolo[4,3-c]pyridin-1-yl)-1,4-dioxaspiro[4.5]decan-8-yl)acetonitrile], the half-inhibitory concentration (IC50) in assay [1] stood at 21.6 nM; in assay [2] it was 1.97 nM.
Turning to `N#CC[C@@]1(n2nc(Nc3ccc(S(=O)(=O)N4CCOCC4)cc3)c3c(=O)[nH]ccc32)CCCOC1` [Example 5-204, [(3S)-3-(3-{[4-(morpholin-4-ylsulfonyl)phenyl]amino}-4-oxo-4,5-dihydro-1H-pyrazolo[4,3-c]pyridin-1-yl)tetrahydro-2H-pyran-3-yl]acetonitrile], the results for the half-maximal inhibitory concentration (IC50) in assay [1] and in assay [2] were 0.48 nM and 0.29 nM, respectively.
`CC(C)(C)N1Cc2cc(Nc3nn([C@@]4(CC#N)CCOC[C@H]4F)c4cc[nH]c(=O)c34)ccc2S1(=O)=O` (single isomer, unassigned) [Example 5-255, 2-((3S,4S or 3R,4R)-4-(3-((2-(tert-butyl)-1,1-dioxido-2,3-dihydrobenzo[d]isothiazol-5-yl)amino)-4-oxo-4,5-dihydro-1H-pyrazolo[4,3-c]pyridin-1-yl)-3-fluorotetrahydro-2H-pyran-4-yl)acetonitrile]: the IC50 in assay [1] is 3.32 nM; in assay [2] it was 0.14 nM.
Consider `CC(C)(C)NC(c1ccc(Nc2nn([C@]3(CC#N)CCCOC3)c3cc[nH]c(=O)c23)cc1)C(F)(F)F` (single isomer, unassigned) [Example 5-189, {(3S)-3-[3-({4-[(1R or 1S)-1-(tert-butylamino)-2,2,2-trifluoroethyl]phenyl}amino)-4-oxo-4,5-dihydro-1H-pyrazolo [4,3-c]pyridin-1-yl]tetrahydro-2H-pyran-3-yl}acetonitrile], for which the results for the IC50 in assay [1] and in assay [2] were 0.17 nM and 0.14 nM, respectively.
As for `CC(C)(C)OC(=O)N1CCC(CC#N)(n2nc(Nc3ccc(S(N)(=O)=O)cc3)c3c(=O)[nH]ccc32)CC1` [Example 5-4, tert-butyl 4-(cyanomethyl)-4-{4-oxo-3-[(4-sulfamoylphenyl)amino]-4,5-dihydro-1H-pyrazolo[4,3-c]pyridin-1-yl}piperidine-1-carboxylate], the IC50 stood at 0.23 nM in assay [1] and 0.12 nM in assay [2].
For the compound `CC(C)(C)OC(=O)N1CCC(CC#N)(n2nc(Nc3ccc4c(c3)CN(CC(F)(F)F)S4(=O)=O)c3c(=O)[nH]ccc32)CC1` [Example 5-25, tert-butyl 4-(cyanomethyl)-4-(3-((1,1-dioxido-2-(2,2,2-trifluoroethyl)-2,3-dihydrobenzo[d]isothiazol-5-yl)amino)-4-oxo-4,5-dihydro-1H-pyrazolo[4,3-c]pyridin-1-yl)piperidine-1-carboxylate], the IC50 is 0.3 nM in assay [1] and 0.19 nM in assay [2].
For `Cc1cc(Nc2nn([C@]3(CC#N)CC[C@@H](C(=O)OC(C)(C)C)OC3)c3cc[nH]c(=O)c23)ccc1-n1cccn1` [Example 5-219, (2S,5S)-tert-butyl 5-(cyanomethyl)-5-(3-((3-methyl-4-(1H-pyrazol-1-yl)phenyl)amino)-4-oxo-4,5-dihydro-1H-pyrazolo [4,3-c]pyridin-1-yl) tetrahydro-2H-pyran-2-carboxylate], in that order: 1.36 nM and 0.13 nM.
For the compound `CN(C)S(=O)(=O)c1ccc(Nc2nn(C3(CC#N)CCN(Cc4ccc(N5CCCC5=O)cc4)CC3)c3cc[nH]c(=O)c23)cc1` [Example 8-14, 4-[(1-{4-(cyanomethyl)-1-[4-(2-oxopyrrolidin-1-yl)benzyl]piperidin-4-yl}-4-oxo-4,5-dihydro-1H-pyrazolo[4,3-c]pyridin-3-yl)amino]-N,N-dimethylbenzenesulfonamide], the IC50 in assay [1] worked out at 2.84 nM; in assay [2] it was 0.73 nM.

The values are drawn from patent US9957264B2 (Merck Sharp & Dohme Corp., priority 2013, dated 2018).
